22 compounds from patent publication US11136296B2, “Substituted N-arylethyl-2-arylquinoline-4-carboxamides and use thereof” (Bayer Aktiengesellschaft, priority 2017, dated 2021) can be followed below.

Broadly, the IC50 is the concentration that gives 50% inhibition.

In this test the target is FP receptor (Homo sapiens (Human), UniProt P43088). Description: In vitro test of inhibition of human FP receptor activity (PGF2α-induced calcium flux in FP-expressing CHEM1 cells). The test is classed as cell-based. Particulars: PGF2α-induced (2 nM) calcium flux in FP-expressing CHEM1 cells; some as mean values from multiple determinations. The source says: Table 1 below lists the IC50 values from this assay for individual working examples of the invention (some as mean values from multiple independent individual determinations): […]
Chain of FP receptor (P43088 whole entry): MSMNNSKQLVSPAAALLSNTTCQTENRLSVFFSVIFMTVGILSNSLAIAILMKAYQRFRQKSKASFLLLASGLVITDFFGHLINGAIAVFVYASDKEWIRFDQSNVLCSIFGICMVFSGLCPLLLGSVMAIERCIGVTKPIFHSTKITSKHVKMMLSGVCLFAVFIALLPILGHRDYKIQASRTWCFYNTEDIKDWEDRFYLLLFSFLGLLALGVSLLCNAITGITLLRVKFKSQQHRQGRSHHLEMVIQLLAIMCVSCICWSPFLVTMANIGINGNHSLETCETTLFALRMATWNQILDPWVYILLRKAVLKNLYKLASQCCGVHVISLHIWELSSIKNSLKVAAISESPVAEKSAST
(Calcium flux is commonly read through the fluorescence of an indicator in the cells.)
As to `Cc1c(-c2ccccc2)nc2ccc(Br)cc2c1C(=O)NCC(CCC(=O)O)c1ccccc1F` (racemic) [Example 175, (+/−)-5-{[(6-Bromo-3-methyl-2-phenylquinolin-4-yl)carbonyl]amino}-4-(2-fluorophenyl)pentanoic Acid], the IC50 worked out at 15 nM.
With `Cc1c(-c2ccccc2)nc2ccc(Br)cc2c1C(=O)NCC(CCC(=O)O)c1ccccc1OC(F)F` (racemic) [Example 178, (+/−)-5-{[(6-Bromo-3-methyl-2-phenylquinolin-4-yl)carbonyl]amino}-4-[2-(difluoromethoxy)phenyl]pentanoic Acid] the figure was 6.5 nM.
The figure for `Cc1c(-c2ccccc2)nc2ccc(Br)cc2c1C(=O)NCC(CCC(=O)O)c1c(F)cccc1F` (racemic) [Example 181, (+/−)-5-{[(6-Bromo-3-methyl-2-phenylquinolin-4-yl)carbonyl]amino}-4-(2,6-difluorophenyl)pentanoic Acid] is 9.2 nM; for `Cc1c(-c2ccccc2)nc2ccc(Br)cc2c1C(=O)NCC(CCC(=O)O)c1cccc(F)c1Cl` (racemic) [Example 184, (+/−)-5-{[(6-Bromo-3-methyl-2-phenylquinolin-4-yl)carbonyl]amino}-4-(2-chloro-3-fluorophenyl)pentanoic Acid] it is 7.7 nM.
Consider `Cc1c(-c2ccccc2)nc2ccc(Br)cc2c1C(=O)NCC(c1ccccc1Cl)N(C)CC(=O)O` (racemic) [Example 187, (+/−)-N-[2-{[(6-Bromo-3-methyl-2-phenylquinolin-4-yl)carbonyl]amino}-1-(2-chlorophenyl)ethyl]-N-methylglycine], for which the IC50 was determined as 36 nM.
With `Cc1c(-c2ccccc2)nc2ccc(Br)cc2c1C(=O)NCC(NCC(=O)O)c1ccccc1Cl` (racemic) [Example 190, (+/−)-N-[2-{[(6-Bromo-3-methyl-2-phenylquinolin-4-yl)carbonyl]amino}-1-(2-chlorophenyl)ethyl]glycine] the figure was 67 nM; with `Cc1c(-c2ccccc2)nc2ccc(Br)cc2c1C(=O)NCC(OCC(=O)O)c1ccccc1Cl` (racemic) [Example 191, (+/−)-[2-{[(6-Bromo-3-methyl-2-phenylquinolin-4-yl)carbonyl]amino}-1-(2-chlorophenyl)ethoxy]acetic Acid], 100 nM.
With `Cc1c(-c2ccccc2)nc2ccc(Br)cc2c1C(=O)NCC(SCC(=O)O)c1ccccc1Cl` (racemic) [Example 194, (+/−)-{[2-{[(6-Bromo-3-methyl-2-phenylquinolin-4-yl)carbonyl]amino}-1-(2-chlorophenyl)ethyl]sulfanyl}acetic Acid] the figure was 7.9 nM.
The figure for `Cc1c(-c2ccccc2)nc2ccc(Br)cc2c1C(=O)NCC(c1ccccc1Cl)S(=O)(=O)CC(=O)O` (racemic) [Example 197, (+/−)-{[2-{[(6-Bromo-3-methyl-2-phenylquinolin-4-yl)carbonyl]amino}-1-(2-chlorophenyl)ethyl]sulfonyl}acetic Acid] is 21 nM; for `Cc1c(-c2ccccc2)nc2ccc(Br)cc2c1C(=O)NCC(CCC(=O)O)c1c(Cl)ccc(F)c1F` (racemic) [Example 200, (+/−)-5-{[(6-Bromo-3-methyl-2-phenylquinolin-4-yl)carbonyl]amino}-4-(6-chloro-2,3-difluorophenyl)pentanoic Acid] it is 3.6 nM.
For `Cc1c(-c2ccccc2)nc2ccc(Br)cc2c1C(=O)NCC(CCC(=O)O)c1ccccc1C(F)(F)F` (racemic) [Example 203, (+/−)-5-{[(6-Bromo-3-methyl-2-phenylquinolin-4-yl)carbonyl]amino}-4-[2-(trifluoromethyl)phenyl]pentanoic Acid], the IC50 came out at 7.6 nM.
With `Cc1ccc(F)cc1C(CCC(=O)O)CNC(=O)c1c(C)c(-c2ccccc2)nc2ccc(Br)cc12` (racemic) [Example 206, (+/−)-5-{[(6-Bromo-3-methyl-2-phenylquinolin-4-yl)carbonyl]amino}-4-(5-fluoro-2-methylphenyl)pentanoic Acid] the figure was 13 nM; with `Cc1c(-c2ccccc2)nc2ccc(Br)cc2c1C(=O)NCC(CCC(=O)O)c1ccccc1OC(F)(F)F` (racemic) [Example 209, (+/−)-5-{[(6-Bromo-3-methyl-2-phenylquinolin-4-yl)carbonyl]amino}-4-[2-(trifluoromethoxy)phenyl]pentanoic Acid], 1.8 nM.
With `O=C(O)CCC(CNC(=O)c1c(Cl)c(-c2ccccc2)nc2ccc(Br)cc12)c1ccccc1Cl` (racemic) [Example 212, (+/−)-5-{[(6-Bromo-3-chloro-2-phenylquinolin-4-yl)carbonyl]amino}-4-(2-chlorophenyl)pentanoic Acid], the IC50 worked out at 6.6 nM.
The figure for `O=C(O)CCC(CNC(=O)c1c(Cl)c(-c2ccccc2)nc2ccc(Br)cc12)c1ccccc1C(F)(F)F` (racemic) [Example 215, (+/−)-5-{[(6-Bromo-3-chloro-2-phenylquinolin-4-yl)carbonyl]amino}-4-[2-(trifluoromethyl)phenyl]pentanoic Acid] is 5.4 nM; for `C#Cc1ccc2nc(-c3ccccc3)c(C)c(C(=O)NCC(CCC(=O)O)c3ccccc3Cl)c2c1` (racemic) [Example 218, (+/−)-4-(2-Chlorophenyl)-5-{[(6-ethynyl-3-methyl-2-phenylquinolin-4-yl)carbonyl]amino}pentanoic Acid] it is 13 nM; for `O=C(O)CCC(CNC(=O)c1c(Cl)c(-c2ccccc2)nc2ccc(Br)cc12)c1c(F)ccc(F)c1Cl` (racemic) [Example 221, (+/−)-5-{[(6-Bromo-3-chloro-2-phenylquinolin-4-yl)carbonyl]amino}-4-(2-chloro-3,6-difluorophenyl)pentanoic Acid] it is 2.4 nM.
The figure for `Cc1c(-c2ccccc2)nc2ccc(Br)cc2c1C(=O)NCC(CCC(=O)O)c1ccccn1` (racemic) [Example 224, (+/−)-5-{[(6-Bromo-3-methyl-2-phenylquinolin-4-yl)carbonyl]amino}-4-(pyridin-2-yl)pentanoic Acid] is 100 nM; for `Cc1c(-c2ccccc2)nc2ccc(Br)cc2c1C(=O)NCC(CCC(=O)O)c1c(F)cccc1C(F)(F)F` (racemic) [Example 225, (+/−)-5-{[(6-Bromo-3-methyl-2-phenylquinolin-4-yl)carbonyl]amino}-4-[2-fluoro-6-(trifluoromethyl)phenyl]pentanoic Acid] it is 4.7 nM; for `Cc1c(-c2ccccc2)nc2ccc(Br)cc2c1C(=O)NCC(CCC(=O)O)c1c(F)c(F)cc(F)c1F` (racemic) [Example 228, (+/−)-5-{[(6-Bromo-3-methyl-2-phenylquinolin-4-yl)carbonyl]amino}-4-(2,3,5,6-tetrafluorophenyl)pentanoic Acid] it is 4.2 nM.
With `Cc1c(-c2ccccc2)nc2ccc(Br)cc2c1C(=O)NCC(CCC(=O)O)c1cc(F)cc(F)c1F` (racemic) [Example 231, (+/−)-5-{[(6-Bromo-3-methyl-2-phenylquinolin-4-yl)carbonyl]amino}-4-(2,3,5-trifluorophenyl)pentanoic Acid] the figure was 22 nM.
Turning to `Cc1c(-c2ccccc2)nc2ccc(Br)cc2c1C(=O)NCC(CCC(=O)O)c1c(Cl)ccc(Cl)c1Cl` (racemic) [Example 234, (+/−)-5-{[(6-Bromo-3-methyl-2-phenylquinolin-4-yl)carbonyl]amino}-4-(2,3,6-trichlorophenyl)pentanoic Acid], the IC50 amounted to 7.2 nM.
